assay: recombinant barcode read abundance after kanamycin selection (control-corrected) (log10(CPM+1)); higher = more efficient recombination; sequences stand for … in AGTGCAGAGAAAATCGGCCAGTTTTCTCTGCCTGCAGTCCGCATGCCGT…AGATTTATGCAGCGGACTGCCTTTCTCCCAAAGTGATAAACCGGACAGTATCATGGACCGGTTTTCCCGGTAATCCGTATTTGCAAGGTTGGTTTCACT; site = the 11-nt target
Experimental: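 Pooled E. coli target-specificity screen for the IS621 bridge recombinase. Each library plasmid pairs an 11-nt target (CT core) with a bridge RNA whose target-binding loop (9-nt LTG + 4-nt RTG) is reprogrammed; the rest of the 177-nt WT IS621 bridge RNA scaffold is fixed. The plasmid is co-electroporated with a WT donor plasmid; recombinase is induced with 0.1 mM IPTG and recombinants are selected on kanamycin. Recombinant barcodes are sequenced, converted to CPM, averaged over two biological replicates and corrected by the unselected control CPM. Molecule = full bridge RNA written as DNA: LTG = specificity nt 1-9, RTG = reverse complement of specificity nt 8-11, in the WT scaffold.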
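Note: IS621 recombinase and bridge RNA in Escherichia coli cells.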

In order of rising “recombinant barcode read abundance (log10)” value:
1. CGTTCACCTTGGGTTCTAACCTGTTGCAT (site ACAAATACTCC)  0.0056
2. CCGAATTCTTGGGTTCTAACCTGTTGCTT (site TACCCACCTCT)  0.00604
3. ACATGTCCTTGGGTTCTAACCTGTTGCCT (site ACATGTCCTAT)  0.00753
4. TCTTGGACTTGGGTTCTAACCTGTTGCTC (site TCTTGGACTTA)  0.0183
5. TGTCTGGCTTGGGTTCTAACCTGTTGCCT (site TGTCTGGCTAG)  0.0185
6. TCGATCACTTGGGTTCTAACCTGTTGCCT (site TCGATTACTAG)  0.0188
7. GCTAAGACTTGGGTTCTAACCTGTTGCTG (site GGTAAGACTCC)  0.0258
8. TACTAAACTTGGGTTCTAACCTGTTGCCT (site TACTCAACTAG)  0.0276
9. ACCGTGACTTGGGTTCTAACCTGTTGCCT (site ACCGGGACTAG)  0.0292
10. CACTTGGCTTGGGTTCTAACCTGTTGCCT (site CACTTGACTAG)  0.0371
11. TGGCGTCCTTGGGTTCTAACCTGTTGCCT (site TGGGGTCCTAG)  0.0381
12. AACCTTACTTGGGTTCTAACCTGTTGCCT (site AGCCTTACTAG)  0.0388
13. CAAACATCTTGGGTTCTAACCTGTTGCCT (site CAAACACCTAG)  0.0425
14. CCTGAGTCTTGGGTTCTAACCTGTTGCCT (site CCTGACTCTAG)  0.0437
15. TCCCTTCCTTGGGTTCTAACCTGTTGCCT (site TCCCGTCCTAG)  0.0443
16. GGTTCTCCTTGGGTTCTAACCTGTTGCCT (site CGTTCTCCTAG)  0.0451
17. TTGGCGACTTGGGTTCTAACCTGTTGCCA (site TTGCCGACTTG)  0.0473
18. CTCATTCCTTGGGTTCTAACCTGTTGCTT (site CTCATTCCTAG)  0.0511
19. CGTACCTCTTGGGTTCTAACCTGTTGCTC (site CGTACCTCTAA)  0.056
20. GATTCTCCTTGGGTTCTAACCTGTTGCTT (site GATTCTCCTAG)  0.0621
21. TCGCACACTTGGGTTCTAACCTGTTGCTG (site TAGCACACTCG)  0.0637
22. TACTGATCTTGGGTTCTAACCTGTTGCCT (site TAATGATCTAG)  0.0666
23. GTTTGGTCTTGGGTTCTAACCTGTTGCCT (site GTTTGCTCTAG)  0.0727
24. CGACAGGCTTGGGTTCTAACCTGTTGCCT (site AGACTGGCTAG)  0.073
25. CTATTCACTTGGGTTCTAACCTGTTGCCT (site CTATTCCCTAG)  0.0733
26. ACTTCTACTTGGGTTCTAACCTGTTGCTA (site ACTTCTACTTA)  0.0751
27. TGCCTAGCTTGGGTTCTAACCTGTTGCCT (site TGACTAGCTAG)  0.0824
28. ACATGTCCTTGGGTTCTAACCTGTTGCCT (site ACATGTCCTAA)  0.0846
29. TAGTCAACTTGGGTTCTAACCTGTTGCGT (site TGGCCAACTAC)  0.0928
30. CCTGGGCCTTGGGTTCTAACCTGTTGCCT (site CATGGGCCTAG)  0.0944
31. CACCCTACTTGGGTTCTAACCTGTTGCCT (site GACCCTACTAG)  0.0997
32. GATGGCCCTTGGGTTCTAACCTGTTGCTT (site GACGGACCTAA)  0.101
33. GGTTTAGCTTGGGTTCTAACCTGTTGCTA (site GGTTTAGCTTA)  0.106
34. AGTATCGCTTGGGTTCTAACCTGTTGCGG (site AGTCTCGCTCC)  0.11
35. AGGTTCCCTTGGGTTCTAACCTGTTGCGG (site CTAGGAACTTA)  0.11
36. TGTCCTGCTTGGGTTCTAACCTGTTGCCT (site GGTCCTGCTAG)  0.11
37. TCCCATCCTTGGGTTCTAACCTGTTGCTT (site TCCCATCCTAA)  0.114
38. GGTTCTTCTTGGGTTCTAACCTGTTGCCT (site GATTCTTCTAG)  0.12
39. GGGAACCCTTGGGTTCTAACCTGTTGCTA (site GGGAACCCTCA)  0.132
40. TAACTCTCTTGGGTTCTAACCTGTTGCCT (site TTACTCTCTAG)  0.145
41. AGCCACGCTTGGGTTCTAACCTGTTGCCT (site AGCCACTCTAG)  0.153
42. CTAAATACTTGGGTTCTAACCTGTTGCCT (site CTAAATACTAG)  0.17
43. TCATATTCTTGGGTTCTAACCTGTTGCCT (site TCAAATTCTAG)  0.17
44. AAAGTCCCTTGGGTTCTAACCTGTTGCCT (site GAAGTCCCTAG)  0.218
45. AGTGAATCTTGGGTTCTAACCTGTTGCCT (site AGCGAATCTAG)  0.249
46. AGGCGTCCTTGGGTTCTAACCTGTTGCCT (site AGGCGTCCTCG)  0.249
47. TTGGTAGCTTGGGTTCTAACCTGTTGCCT (site TTGGAAGCTAG)  0.255
48. GAGCGTACTTGGGTTCTAACCTGTTGCAT (site GAGAGTACTAT)  0.257
49. GAGCCGACTTGGGTTCTAACCTGTTGCCT (site GAGCAGACTAG)  0.288
50. CTGGAGTCTTGGGTTCTAACCTGTTGCCT (site CTGGCGTCTAG)  0.322
51. CGGTCATCTTGGGTTCTAACCTGTTGCCT (site CGATCATCTAG)  0.331
52. CTAGTGACTTGGGTTCTAACCTGTTGCGG (site CTAGTGACTTC)  0.352
53. GTCGCGTCTTGGGTTCTAACCTGTTGCCT (site GTCGCGGCTAG)  0.392
54. TAGTACTCTTGGGTTCTAACCTGTTGCTC (site TAGTACTCTCA)  0.429
55. TAATCGGCTTGGGTTCTAACCTGTTGCCT (site TAATCGGCTAG)  0.453
56. GGACGATCTTGGGTTCTAACCTGTTGCCT (site GGACAATCTAG)  0.471
57. CACTCTGCTTGGGTTCTAACCTGTTGCCT (site CACTCTGCTAG)  0.569
58. TCCTTCTCTTGGGTTCTAACCTGTTGCCT (site TCCTTCTCTAG)  0.601
59. GCAGGGTCTTGGGTTCTAACCTGTTGCTT (site GCGGGGTCTAA)  0.646
60. CGGAATCCTTGGGTTCTAACCTGTTGCTT (site CGGAATCCTAT)  0.707
61. ACGACTTCTTGGGTTCTAACCTGTTGCCT (site ACGACTTCTAG)  0.731
62. CTATATACTTGGGTTCTAACCTGTTGCTT (site CTATATACTAA)  0.804
63. ATAAGTCCTTGGGTTCTAACCTGTTGCGA (site ACAAGTCCTCC)  0.869
64. TGGCGTCCTTGGGTTCTAACCTGTTGCCT (site TGGCGTCCTAG)  0.963
65. GCCCGTCCTTGGGTTCTAACCTGTTGCCG (site GCCCGTCCTCG)  1
66. GCTGAGGCTTGGGTTCTAACCTGTTGCTG (site GCTGAGGCTCA)  1.05
67. CAAGACCCTTGGGTTCTAACCTGTTGCCT (site CAGGACCCTAG)  1.05
68. ATGTCGTCTTGGGTTCTAACCTGTTGCCT (site ATGTCGTCTAG)  1.13
69. GAGAAGCCTTGGGTTCTAACCTGTTGCCT (site AAGAAGCCTAG)  1.17
70. ATAGCGACTTGGGTTCTAACCTGTTGCCT (site ATAGCAACTAG)  1.18
71. TGAGGGCCTTGGGTTCTAACCTGTTGCCT (site TGAGGGCCTAG)  1.26
72. TGGGCACCTTGGGTTCTAACCTGTTGCTT (site TGGGCACCTAA)  1.37
73. GCTTGGTCTTGGGTTCTAACCTGTTGCGA (site GCTTGGTCTTC)  1.57
74. CTTCGTCCTTGGGTTCTAACCTGTTGCGT (site CTTCGTCCTAC)  1.59
75. CTAAGGTCTTGGGTTCTAACCTGTTGCTA (site CTAAGGTCTTA)  1.64
76. GGACCTCCTTGGGTTCTAACCTGTTGCAT (site GGACCTCCTAT)  1.96
77. ACTCGGCCTTGGGTTCTAACCTGTTGCGA (site ACTCGGCCTTC)  2.11
78. GACTAGTCTTGGGTTCTAACCTGTTGCAG (site GACTAGTCTCT)  2.22
79. GTGCACACTTGGGTTCTAACCTGTTGCGG (site GTGCACACTCC)  2.44
80. GAATGGACTTGGGTTCTAACCTGTTGCGA (site GAATGGACTTC)  2.45
81. CTCAAGACTTGGGTTCTAACCTGTTGCGG (site CTCAAGACTCC)  2.5
82. TTGGGAGCTTGGGTTCTAACCTGTTGCTG (site TTGGGAGCTCA)  2.92
